Results from patent US20060063711A1, “Use of sglt homolog” (priority 2002, published 2006).

Experiments:
human SGLT homolog [1] = molecular target: T1, human SGLT homolog (Homo sapiens, UniProt Q2M3M2, I269M); assay: substrate specificity, α-methyl glucose uptake test in human SGLT homolog-transfected COS7 cells; assay type: cell-based; parameters: expressed in transfected cells; host or cells: COS7 cells; settings: sugar added at 0, 1 and 10 mM
T1 sequence (Q2M3M2 8-681 I269M limits assumed): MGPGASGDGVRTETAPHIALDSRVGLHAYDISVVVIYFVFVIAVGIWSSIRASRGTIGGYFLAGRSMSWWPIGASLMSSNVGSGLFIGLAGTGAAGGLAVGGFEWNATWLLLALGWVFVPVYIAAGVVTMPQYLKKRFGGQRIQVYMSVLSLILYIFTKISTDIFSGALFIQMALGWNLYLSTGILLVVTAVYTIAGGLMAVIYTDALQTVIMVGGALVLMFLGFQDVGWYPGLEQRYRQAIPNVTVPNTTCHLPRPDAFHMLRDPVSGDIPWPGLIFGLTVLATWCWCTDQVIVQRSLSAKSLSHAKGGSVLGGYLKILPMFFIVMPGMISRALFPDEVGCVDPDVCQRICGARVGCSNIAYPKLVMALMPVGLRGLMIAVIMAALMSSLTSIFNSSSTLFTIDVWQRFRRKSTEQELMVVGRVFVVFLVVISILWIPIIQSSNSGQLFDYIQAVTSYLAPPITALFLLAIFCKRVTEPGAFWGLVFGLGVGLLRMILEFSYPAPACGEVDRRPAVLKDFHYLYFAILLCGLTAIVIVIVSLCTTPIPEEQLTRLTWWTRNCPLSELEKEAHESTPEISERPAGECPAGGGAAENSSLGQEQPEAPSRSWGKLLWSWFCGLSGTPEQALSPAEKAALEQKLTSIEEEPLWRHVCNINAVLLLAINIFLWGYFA
Method: (§1) The human SGLT homolog or human SGLT1-transfected COS7 cells were prepared and the respective substrate specificities were examined. The α-methyl glucose uptake test was carried out in accordance with the procedures described in Am. J. Physiol., 270: G833-G843, 1996 and J. Clin. Invest., 93: 397-404, 1994. The cells were plated on 100 μl of DMEM medium containing 10% FBS charged in a 96-well plate in a cell density of 3×10^4 cells/well, followed by culturing overnight at 37° C. Each well was washed 3 times with a reaction buffer solution supplemented with 125 mM N-Methyl-D-Glucamine (1.2 mM KH2PO4, 2.5 mM CaCl2, 1.2 mM MgSO4, 4 mM Glutamine, 10 mM HEPES (pH 7.2), 0.1 mg/ml BSA) and further cultured for an hour in the same buffer solution to remove the glucose remained in the cells. Next, 150 mM NaCl was added to the reaction buffer solution above and glucose or galactose was added to the mixture in 0, 1 and 10 mM, respectively. Then 90 μl each of the thus prepared mixtures was added per well. […] After washing 3 times with 200 μl of chilled PBS, 100 μl each of liquid scintillator was added per well and the radioactivity of ^14C taken up into the cells was counted with a scintillation counter.

human SGLT1 [2] = molecular target: T2, human SGLT1 (Homo sapiens, UniProt P13866); assay: substrate specificity, α-methyl glucose uptake test in human SGLT1-transfected COS7 cells; assay type: cell-based; parameters: expressed in transfected cells; host or cells: COS7 cells; settings: sugar added at 0, 1 and 10 mM
T2 sequence (P13866 1-664): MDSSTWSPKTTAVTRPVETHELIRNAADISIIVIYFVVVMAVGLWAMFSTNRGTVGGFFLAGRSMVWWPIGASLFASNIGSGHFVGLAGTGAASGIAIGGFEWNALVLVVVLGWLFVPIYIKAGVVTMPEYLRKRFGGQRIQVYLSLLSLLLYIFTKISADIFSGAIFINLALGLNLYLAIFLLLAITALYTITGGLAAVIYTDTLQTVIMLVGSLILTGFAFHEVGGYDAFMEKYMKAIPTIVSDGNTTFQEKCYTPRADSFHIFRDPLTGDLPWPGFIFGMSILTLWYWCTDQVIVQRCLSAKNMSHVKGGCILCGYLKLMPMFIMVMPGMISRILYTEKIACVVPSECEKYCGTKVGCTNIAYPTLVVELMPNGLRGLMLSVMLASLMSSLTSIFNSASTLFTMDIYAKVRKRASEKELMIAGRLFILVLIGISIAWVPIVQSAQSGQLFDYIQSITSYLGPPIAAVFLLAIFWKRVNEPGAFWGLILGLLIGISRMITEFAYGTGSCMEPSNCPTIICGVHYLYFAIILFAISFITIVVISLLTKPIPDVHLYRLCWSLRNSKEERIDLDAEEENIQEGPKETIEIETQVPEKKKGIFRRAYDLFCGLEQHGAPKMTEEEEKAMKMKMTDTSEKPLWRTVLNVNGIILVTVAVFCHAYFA
Method: as §1

human SGLT homolog [3] = molecular target: T1, human SGLT homolog; assay: kinetic analysis of glucose uptake in human SGLT homolog-transfected COS7 cells
Method: (§2) The human SGLT homolog or the human SGLT1-transfected COS7 cells were prepared and subjected to kinetic analysis of glucose uptake, respectively. […] The cells were plated on 100 μl of DMEM medium containing 10% FBS charged in a 96-well plate in a cell density of 3×10^4 cells/well, followed by culturing overnight at 37° C. […] Then 90 μl each of the thus prepared mixtures was added per well. In addition, 10 μl each of α-methyl glucose in a final concentration of 1 mM, which contained 0.02 μCi of [^14C]-α-methyl glucose (Amersham Pharmacia Biotech, Inc.), was added per well to carry out a glucose uptake reaction for an hour. After washing 3 times with 200 μl of chilled PBS, 100 μl each of liquid scintillator was added per well and the radioactivity of ^14C taken up into the cells was counted with a scintillation counter to determine Km and Vmax in the glucose uptake.

human SGLT1 [4] = molecular target: T2, human SGLT1; assay: kinetic analysis of glucose uptake in human SGLT1-transfected COS7 cells
Method: as §2

[5] = read-out: Km in the glucose uptake, α-methyl glucose 0 to 20 mM, 150 mM NaCl
[6] = α-methyl glucose 0 to 20 mM, 150 mM NaCl

| affinity (competition of α-methyl glucose uptake) (human SGLT homolog [1]) | affinity (competition of α-methyl glucose uptake) (human SGLT1 [2]) | Km (human SGLT homolog [3]; [5]) [mM] | Vmax in the glucose uptake (human SGLT homolog [3]; [6]) [nmol/hour/106 cells] | Km (human SGLT1 [4]; [5]) [mM] | Vmax in the glucose uptake (human SGLT1 [4]; [6]) [nmol/hour/106 cells] | SMILES |
| --- | --- | --- | --- | --- | --- | --- |
| little affinity | had affinity |  |  |  |  | O=C[C@H](O)[C@@H](O)[C@@H](O)[C@H](O)CO [galactose] |
|  |  | 7.9 | 8.0 | 1.8 | 3.9 | COC1OC(CO)C(O)C(O)C1O (stereo not drawn) [α-methyl glucose] |
